Laboratory results reported in patent publication US11633497B2, “Anti-c-Met antibody drug conjugates” (AbbVie Inc., priority 2021, dated 2023).
Like-named read-outs stand apart in the source and are kept apart here.

Columns and labels:
[1] = test system: Calu-6 cells (lung adenocarcinoma); assay: Cell proliferation, CellTiter-Glo luminescence, Calu-6; assay type: cell-based; conditions: Homo sapiens
Procedure: The effect of TOP1i drugs on cell viability was assessed by monitoring ATP presence for metabolically active cells. Proliferation of Calu-6 cells (lung adenocarcinoma) and A375 cells (malignant melanoma) were quantified using CellTiter-Glo® luminescence.

[2] = test system: A375 cells (malignant melanoma); assay: Cell proliferation, CellTiter-Glo luminescence, A375; assay type: cell-based; conditions: Homo sapiens, A-375, read-out: TOP1i Compound Potency EC50, A375
From the text: Proliferation of Calu-6 cells (lung adenocarcinoma) and A375 cells (malignant melanoma) were quantified using CellTiter-Glo® luminescence.

Compound	EC50 ([1]; Calu-6 cell viability, CellTiter-Glo, read-out: TOP1i Compound Potency EC50, Calu-6) [nM]	EC50 [2] [nM]	EC50 ([1]; Calu-6, read-out: TOP1i Compound Potency EC50, Calu-6) [nM]
CCc1c2c(nc3ccc(O)cc13)-c1cc3c(c(=O)n1C2)COC(=O)[C@]3(O)CC [SN-38, reference compound]	6.58		
CC[C@@]1(O)C(=O)OCc2c1cc1n(c2=O)Cc2c-1nc1cc3c(cc1c2C12CC(N)(C1)C2)OCO3 [Example 1G, (7S)-14-(3-aminobicyclo[1.1.1]pentan-1-yl)-7-ethyl-7-hydroxy-2H,10H-[1,3]dioxolo[4,5-g]pyrano[3′,4′:6,7]indolizino[1,2-b]quinoline-8,11(7H,13H)-dione]		0.5	0.57
